In US20220175856A1, “UNRAVELING RECEPTOR-METABOLITE INTERACTIONS IN THE HUMAN MICROBIOME” (The Rockefeller University, priority 2019, published 2022):
pEC50: −log10 of the molar value. Entries after “also recorded” stand apart in the source; their conditions may differ. Like-named read-outs stand apart in the source and are kept apart here.

Key:
GPR109B = GPR109B (Homo sapiens, UniProt P49019); assay: cell-based
Text: (§1) Individual bacteria from the SIHUMI consortium were fermented under anaerobic conditions in 20 L culture vessels, along with a media control containing no bacteria (FIG. 1). After 10 days, the extracellular metabolites were extracted and the crude mixture was partitioned into metabolite-rich fractions using reversed phased flash chromatography. The pre-fractionation process simplifies each fraction, thereby improving the signal in the primary screen and facilitating the downstream isolation of bioactive compounds. The fraction library was screened for agonist activity against individual GPCRs using a luminescence-based β-arrestin recruitment assay.
(§2) Compound plates were shipped on dry ice to Eurofins DiscoverX and the gperMAX and orphanMAX panels were run on all 80 samples in singleton.

[1] = target: T1, urotensin 2 receptor (UTR2) (Homo sapiens, UniProt Q9UKP6); assay: β-arrestin recruitment GPCR agonist assay (PathHunter), UTR2; type: cell-based; details: for agonist activity at UTR2: result in words
T1 sequence (Q9UKP6 1-389): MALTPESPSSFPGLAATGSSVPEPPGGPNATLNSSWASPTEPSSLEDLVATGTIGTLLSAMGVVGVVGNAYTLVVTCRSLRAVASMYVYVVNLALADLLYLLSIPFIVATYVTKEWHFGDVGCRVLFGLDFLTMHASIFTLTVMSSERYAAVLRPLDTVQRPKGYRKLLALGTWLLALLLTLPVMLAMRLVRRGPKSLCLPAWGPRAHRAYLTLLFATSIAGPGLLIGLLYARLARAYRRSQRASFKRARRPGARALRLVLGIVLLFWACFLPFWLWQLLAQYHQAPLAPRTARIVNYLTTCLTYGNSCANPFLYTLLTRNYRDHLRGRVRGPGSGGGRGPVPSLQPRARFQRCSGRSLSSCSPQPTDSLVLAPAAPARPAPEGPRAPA

[2] = target: brain angiogenesis factor 1 (BAI1) (Homo sapiens, UniProt O14514); assay: β-arrestin recruitment GPCR agonist assay (PathHunter), BAI1; type: cell-based
GPR151 = target: T2, GPR151 (Homo sapiens, UniProt Q8TDV0); assay: β-arrestin recruitment GPCR agonist assay (PathHunter), GPR151; type: cell-based; details: Table 1, GPCR GPR151 (Q8TDV0)
T2 sequence (Q8TDV0 1-419): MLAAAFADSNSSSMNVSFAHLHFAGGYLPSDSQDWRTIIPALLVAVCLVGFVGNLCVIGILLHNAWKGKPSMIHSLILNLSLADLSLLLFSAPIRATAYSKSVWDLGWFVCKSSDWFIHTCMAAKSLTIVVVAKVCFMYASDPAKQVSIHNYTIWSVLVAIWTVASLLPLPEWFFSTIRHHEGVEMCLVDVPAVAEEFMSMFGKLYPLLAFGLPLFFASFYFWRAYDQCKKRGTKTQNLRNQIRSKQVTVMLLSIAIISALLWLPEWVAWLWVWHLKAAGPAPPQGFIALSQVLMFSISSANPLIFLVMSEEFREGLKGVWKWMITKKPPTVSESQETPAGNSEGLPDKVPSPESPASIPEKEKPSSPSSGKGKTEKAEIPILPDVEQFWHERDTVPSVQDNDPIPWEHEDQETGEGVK

[3] = target: T3, NMU1R (neuromedin receptor 1) (Homo sapiens, UniProt Q9HB89); assay: β-arrestin recruitment GPCR agonist assay (PathHunter), NMU1R; type: cell-based; details: for agonist activity at NMU1R: result in words
T3 sequence (Q9HB89 1-426): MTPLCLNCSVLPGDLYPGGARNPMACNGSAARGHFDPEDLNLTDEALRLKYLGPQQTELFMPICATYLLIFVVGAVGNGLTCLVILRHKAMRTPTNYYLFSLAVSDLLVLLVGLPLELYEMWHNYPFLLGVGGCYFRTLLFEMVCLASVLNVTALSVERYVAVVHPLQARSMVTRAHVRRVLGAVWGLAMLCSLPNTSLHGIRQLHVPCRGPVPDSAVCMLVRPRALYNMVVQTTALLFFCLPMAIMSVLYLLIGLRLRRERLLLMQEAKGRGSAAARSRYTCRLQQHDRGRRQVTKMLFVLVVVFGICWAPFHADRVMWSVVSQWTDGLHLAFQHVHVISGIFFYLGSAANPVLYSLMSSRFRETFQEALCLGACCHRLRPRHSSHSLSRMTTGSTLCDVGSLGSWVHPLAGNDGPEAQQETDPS

HRH4 = HRH4 (Homo sapiens, UniProt Q9H3N8); assay: β-arrestin recruitment GPCR agonist assay (PathHunter), HRH4; type: cell-based; details: result in words
[4] = tested on: histamine receptor (HRH) family; assay: β-arrestin recruitment GPCR agonist assay (PathHunter), histamine receptor family; type: cell-based, human; details: synthetic polyamines; result in words
[5] = tested on: serotonin receptors (HTRs); assay: β-arrestin recruitment GPCR agonist assay (PathHunter), serotonin receptors; type: cell-based, human; details: result in words
DRD2 = assay: β-arrestin recruitment GPCR agonist assay (PathHunter), DRD2; type: cell-based, human; details: synthetic standard; result in words
Text: as §1, §2

DRD3 = DRD3 (Homo sapiens, UniProt P35462); assay: β-arrestin recruitment GPCR agonist assay (PathHunter), DRD3; type: cell-based; details: synthetic standard; result in words
[6] = Table 1, GPCR UTR2 (Q9UKP6), read-out: EC50 (μM), UTR2

Sequence of HRH4 (Q9H3N8 whole entry): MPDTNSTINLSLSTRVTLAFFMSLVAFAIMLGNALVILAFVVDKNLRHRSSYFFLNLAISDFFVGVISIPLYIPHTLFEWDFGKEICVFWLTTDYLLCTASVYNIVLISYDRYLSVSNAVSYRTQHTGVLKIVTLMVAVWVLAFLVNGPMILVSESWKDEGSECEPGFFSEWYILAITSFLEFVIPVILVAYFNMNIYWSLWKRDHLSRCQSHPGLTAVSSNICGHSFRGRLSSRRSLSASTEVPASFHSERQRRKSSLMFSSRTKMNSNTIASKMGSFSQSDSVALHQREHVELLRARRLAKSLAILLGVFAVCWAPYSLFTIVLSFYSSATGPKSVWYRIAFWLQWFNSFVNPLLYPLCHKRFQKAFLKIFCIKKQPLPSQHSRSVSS
Sequence of brain angiogenesis factor 1 (BAI1) (O14514 31-1584): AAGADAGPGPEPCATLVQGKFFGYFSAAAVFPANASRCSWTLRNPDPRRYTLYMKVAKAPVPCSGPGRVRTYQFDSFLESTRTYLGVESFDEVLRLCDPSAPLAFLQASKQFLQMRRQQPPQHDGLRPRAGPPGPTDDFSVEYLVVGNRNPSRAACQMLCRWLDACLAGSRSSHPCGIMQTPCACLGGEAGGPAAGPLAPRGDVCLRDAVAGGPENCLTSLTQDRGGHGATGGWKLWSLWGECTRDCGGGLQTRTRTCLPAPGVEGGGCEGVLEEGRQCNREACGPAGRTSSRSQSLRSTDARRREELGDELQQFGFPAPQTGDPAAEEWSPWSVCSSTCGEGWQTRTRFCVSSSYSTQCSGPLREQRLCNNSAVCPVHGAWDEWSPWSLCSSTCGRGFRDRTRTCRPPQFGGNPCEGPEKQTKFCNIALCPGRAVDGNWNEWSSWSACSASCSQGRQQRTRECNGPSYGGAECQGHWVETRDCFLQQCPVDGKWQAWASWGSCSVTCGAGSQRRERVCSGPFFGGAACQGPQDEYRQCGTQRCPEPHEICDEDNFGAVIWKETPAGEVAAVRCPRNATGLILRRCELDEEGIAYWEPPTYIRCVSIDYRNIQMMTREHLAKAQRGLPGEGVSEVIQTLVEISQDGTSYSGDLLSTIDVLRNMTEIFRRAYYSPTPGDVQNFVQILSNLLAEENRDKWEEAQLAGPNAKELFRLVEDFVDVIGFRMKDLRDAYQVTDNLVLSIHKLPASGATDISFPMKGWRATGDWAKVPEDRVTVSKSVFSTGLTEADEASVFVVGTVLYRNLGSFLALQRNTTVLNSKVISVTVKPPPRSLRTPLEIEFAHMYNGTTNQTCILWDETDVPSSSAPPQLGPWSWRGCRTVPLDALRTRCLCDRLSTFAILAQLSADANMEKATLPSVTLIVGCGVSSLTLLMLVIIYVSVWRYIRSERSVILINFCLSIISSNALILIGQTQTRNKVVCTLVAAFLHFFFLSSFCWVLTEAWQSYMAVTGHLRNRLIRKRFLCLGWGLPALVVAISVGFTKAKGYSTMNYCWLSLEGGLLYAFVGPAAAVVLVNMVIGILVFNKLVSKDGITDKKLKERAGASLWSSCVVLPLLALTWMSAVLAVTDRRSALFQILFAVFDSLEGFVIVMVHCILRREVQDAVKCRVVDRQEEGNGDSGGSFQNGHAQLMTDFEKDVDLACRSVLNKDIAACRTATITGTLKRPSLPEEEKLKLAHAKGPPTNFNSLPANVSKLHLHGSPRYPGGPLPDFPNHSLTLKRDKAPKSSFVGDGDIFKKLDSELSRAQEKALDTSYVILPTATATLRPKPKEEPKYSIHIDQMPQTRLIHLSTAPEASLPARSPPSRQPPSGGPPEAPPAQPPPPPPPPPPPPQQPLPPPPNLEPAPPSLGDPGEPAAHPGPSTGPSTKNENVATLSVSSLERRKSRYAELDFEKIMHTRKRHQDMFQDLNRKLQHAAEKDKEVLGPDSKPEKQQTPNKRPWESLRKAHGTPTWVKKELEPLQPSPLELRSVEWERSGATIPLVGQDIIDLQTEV
Sequence of GPR109B (P49019 whole entry): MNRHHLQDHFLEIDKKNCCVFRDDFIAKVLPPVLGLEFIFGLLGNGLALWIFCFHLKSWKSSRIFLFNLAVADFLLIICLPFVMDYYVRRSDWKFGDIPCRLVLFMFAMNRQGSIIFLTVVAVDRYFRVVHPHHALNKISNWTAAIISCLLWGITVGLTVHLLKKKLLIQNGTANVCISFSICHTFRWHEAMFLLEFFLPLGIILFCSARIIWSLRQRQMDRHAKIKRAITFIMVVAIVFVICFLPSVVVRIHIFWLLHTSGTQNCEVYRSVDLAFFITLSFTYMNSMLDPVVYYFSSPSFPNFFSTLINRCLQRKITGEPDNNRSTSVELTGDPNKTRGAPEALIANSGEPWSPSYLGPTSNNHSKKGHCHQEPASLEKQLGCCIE
Sequence of DRD3 (P35462 whole entry): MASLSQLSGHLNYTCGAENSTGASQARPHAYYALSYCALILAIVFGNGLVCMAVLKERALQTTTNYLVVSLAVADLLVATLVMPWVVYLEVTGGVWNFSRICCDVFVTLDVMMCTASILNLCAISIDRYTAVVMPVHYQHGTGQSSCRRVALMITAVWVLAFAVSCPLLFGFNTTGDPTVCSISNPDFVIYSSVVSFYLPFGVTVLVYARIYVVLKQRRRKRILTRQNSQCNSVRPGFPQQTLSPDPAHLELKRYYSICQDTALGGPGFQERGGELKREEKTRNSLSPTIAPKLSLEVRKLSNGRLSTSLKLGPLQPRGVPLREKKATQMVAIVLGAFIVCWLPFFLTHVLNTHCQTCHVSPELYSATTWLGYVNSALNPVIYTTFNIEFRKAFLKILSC

How did the pEC50 (GPR109B) turn out when `O=C(O)C=Cc1ccc(O)cc1` [4-hydroxycinnamic acid] was run?
The pEC50 was 3.68.

With `CCCCCCC1CC1CCCCCCCC(=O)O` (stereo not drawn) [9,10-methylenehexadecanoic acid] as the compound, how does the EC50 [1, 6] read?
The EC50 was 52 µM.

What about the EC50 ([2]; Table 1, GPCR BAI1 (O14514)) of the same compound?
The EC50 was 3.2 µM.

What about the “agonism of BAI1” value ([2]; result in words) of the same compound?
Its value is “agonized BAIL; also recorded: BAIl-active”.

Which EC50 (GPR151) does the source give for `CCC(C)CCCCCCCCCCC(=O)O` (stereo not drawn) [12-methylmyristic acid, 12-methyltetradecanoic acid] here?
Its EC50 is 49 µM.

And the EC50 [1, 6]?
Its EC50 is 49 µM.

What about the EC50 ([1]; synthetic and natural compound, read-out: EC50, agonism of UTR2 (converted)) of the same compound?
The EC50 was 202 µM.

And the EC50 ([3]; Table 1, GPCR NMU1R (Q9HB89), read-out: EC50 (μM), NMU1R)?
Its EC50 is 29 µM.

What about the “agonist activity at NMU1R” value [3] of the same compound?
Its value is “NMU1R-active”.

What about the EC50 ([3]; synthetic and natural compound, read-out: EC50, agonism of NMU1R (converted)) of the same compound?
The EC50 was 132 µM.

How did the EC50 (GPR151) turn out when `CC(C)CCCCCCCCCCCC(=O)O` [13-methylmyristic acid, 13-methyltetradecanoic acid] was run?
The EC50 was 44 µM.

With `CCC(C)CCCCCCCCCCCCC(=O)O` (stereo not drawn) [14-methylpalmitic acid] as the compound, how does the EC50 (GPR151) read?
Its EC50 is 40 µM.

`N=C(N)NCCCCN` [Agmatine, agmatine, reference compound] was tested. Which “agonism / activation of HRH4” value (HRH4) did it give?
Its value is “selectively agonized HRH4 but to a lesser extent than cadaverine”.

`CCC(C)CCCCCCCCCCCCC(=O)O` (stereo not drawn) [aiC17:0, reference compound] was tested. Which “agonist activity at UTR2” value [1] did it give?
The value was “minimal agonist activity”.

What about the “agonist activity at NMU1R” value [3] of the same compound?
The value was “minimal agonist activity”.

For `NCCCCCN` [cadaverine], which “agonism / activation of HRH4” value (HRH4) is on record?
The value was “major metabolite responsible for HRH4 activation; also recorded: HRH4 agonist”.

What about the “agonism / activation of HRH4” value (HRH4; listed as Cadaverine) of the same compound?
The value was “HRH4 agonist”.

Which “agonist activity at UTR2” value [1] does the source give for `CC(C)CCCCCCCCCCCC(=O)O` [iC15:0, reference compound] here?
Its value is “minimal agonist activity”.

And the “agonist activity at NMU1R” value [3]?
Its value is “minimal agonist activity”.

Which “agonism / activation of HRH4” value (HRH4) does the source give for `NCCCCN` [putrescine, reference compound] here?
Its value is “selectively agonized HRH4 but to a lesser extent than cadaverine”.

How did the “HRH activity across the entire receptor family” value [4] turn out when `NCCCCNCCCN` [spermidine] was run?
The value was “no HRH activity across the entire receptor family”.

How did the “agonism of serotonin receptors (HTRs)” value [5] turn out when `NCCc1c[nH]c2ccccc12` [tryptamine] was run?
Its value is “can modulate serotonin receptors”.

Which “agonism of DRD2” value (DRD2) does the source give for `NCCc1ccc(O)cc1` [tyramine] here?
Its value is “agonism of DRD2 and DRD3 was validated”.

And the “agonism of DRD3” value (DRD3)?
The value was “agonism of DRD2 and DRD3 was validated”.
